A value given as a limit tells only on which side of the number the result lay.

What all share (type): cell-based
One experiment addresses T1, PLK1 (Homo sapiens, UniProt P53350).
T1 construct: endogenous in cells; host or cells: HeLa LgBit (Plk1-HiBit KI): HeLa stably expressing LgBit, with a CRISPR/Cas9 knock-in of HiBit at the endogenous PLK1 locus
Nature of the experiment: Luciferase assay for PLK1 in HeLa LgBit (Plk1-HiBit KI) cell line. The conditions noted are these: 300 nM compound, luminescence after 9 hours. In short, it runs like this:
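HeLa cells stably expressing LgBit, with HiBit knocked in at the C-terminus of endogenous Plk1, released from a 24 h 2 mM thymidine block and grown 18 h. Endurazine added, then compound at 300 nM; luminescence tracked in real time, expressed as ratio to DMSO.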

The next experiment concerns NCI-H526 cell line. Kind of experiment: Cell viability assay for H526 cell (EZ-Cytox). As to conditions: Homo sapiens, NCI-H526, 120 h; H526 cells, 5 days, 3000 nM to 0.46 nM. A digest of the protocol:
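NCI-H526 cells were exposed to compound in CO2 incubator culture for 5 days. Viability was read by EZ-Cytox absorbance at 450 nm after 3 min shaking, giving IC50 values.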

The next experiment deals with MRC-5 cell line. Nature of the experiment: Cell viability assay for MRC-5 cell line (EZ-Cytox). The conditions noted are these: Homo sapiens, MRC5, 120 h; MRC-5 normal cell line, 5 days, 10000 nM to 1.52 nM; N.D. = no cytotoxicity until 10 μM; read-out: Activity: IC50 value of Exemplary Compound to MRC-5 cell line. As for the experimental part:
4. Cell Viability Assay for MRC-5 Cell Line
(1) Culture of MRC-5 Cell Line
Passage of cultured cells was maintained within P15.
(2) Treatment of Compounds of the Present Invention
Then, it was cultured in 37° C.
(3) Cytotoxicity Experiment
CO2 incubator for 4 hours.

T1 sequence (P53350 whole entry): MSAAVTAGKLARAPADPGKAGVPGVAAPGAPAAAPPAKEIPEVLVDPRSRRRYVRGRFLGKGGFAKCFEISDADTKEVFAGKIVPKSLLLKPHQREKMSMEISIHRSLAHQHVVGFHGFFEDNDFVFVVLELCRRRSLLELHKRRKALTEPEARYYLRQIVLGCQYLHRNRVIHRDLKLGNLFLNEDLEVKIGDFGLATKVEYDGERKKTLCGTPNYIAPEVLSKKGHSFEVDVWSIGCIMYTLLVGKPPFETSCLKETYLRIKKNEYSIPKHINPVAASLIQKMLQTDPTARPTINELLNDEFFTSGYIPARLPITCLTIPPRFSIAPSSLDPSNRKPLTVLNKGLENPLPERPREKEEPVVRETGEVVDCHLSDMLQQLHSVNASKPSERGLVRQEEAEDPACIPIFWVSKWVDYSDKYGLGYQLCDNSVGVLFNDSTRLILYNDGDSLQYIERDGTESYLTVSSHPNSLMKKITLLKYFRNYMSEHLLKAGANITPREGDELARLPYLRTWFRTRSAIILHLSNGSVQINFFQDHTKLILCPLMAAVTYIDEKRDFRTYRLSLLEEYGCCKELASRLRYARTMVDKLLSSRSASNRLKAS

The term IC50 denotes the point on the concentration scale where inhibition reaches its midpoint. Consider `COc1cc(C(=O)N2CCC(N3CC4(CCN(c5cc6c(cc5F)C(=O)N(C5CCC(=O)NC5=O)C6=O)CC4)C3)CC2)ccc1Nc1ncc2c(n1)N(C(C)C)CC(F)(F)C(=O)N2C` (stereo not drawn) [Compound 215, 5-(2-(1-(4-((7,7-difluoro-9-isopropyl-5-methyl-6-oxo-6,7,8,9-tetrahydro-5H-pyrimido[4,5-b][1,4]diazepin-2-yl)amino)-3-methoxybenzoyl)piperidin-4-yl)-2,7-diazaspiro[3.5]nonan-7-yl)-2-(2,6-dioxopiperidin-3-yl)-6-fluoroisoindoline-1,3-dione], for which the “Activity: ratio of the luminescense value of each Exemplary Compound treatment group to DMSO treatment group” value (shortened to “Activity: ratio”) on PLK1 is “++ (++<0.6)”. Further, the half-inhibitory concentration (IC50) in the experiment with NCI-H526 cell line was less than 0.4 µM; with MRC-5 cell line it was 16.2 µM.
The matching figures for `COc1cc(C(=O)NC2CCN(C(=O)COc3cccc4c3C(=O)N(C3CCC(=O)NC3=O)C4=O)CC2)ccc1Nc1ncc2c(n1)N(C1CCCC1)CC(F)(F)C(=O)N2C` (stereo not drawn) [Compound 38, 4-((9-cyclopentyl-7,7-difluoro-5-methyl-6-oxo-6,7,8,9-tetrahydro-5H-pyrimido[4,5-b][1,4]diazepin-2-yl)amino)-N-(1-(2-((2-(2,6-dioxopiperidin-3-yl)-1,3-dioxoisoindolin-4-yl)oxy)acetyl)piperidin-4-yl)-3-methoxybenzamide]: “++ (++<0.6)”, less than 0.2 µM and greater than 10 µM.
With `COc1cc(C(=O)NC2CCN(CC3CN(c4cc5c(cc4F)C(=O)N(C4CCC(=O)NC4=O)C5=O)C3)CC2)ccc1Nc1ncc2c(n1)N(C(C)C)CC(F)(F)C(=O)N2C` (stereo not drawn) [Compound 162, 4-((7,7-difluoro-9-isopropyl-5-methyl-6-oxo-6,7,8,9-tetrahydro-5H-pyrimido[4,5-b][1,4]diazepin-2-yl)amino)-N-(1-((1-(2-(2,6-dioxopiperidin-3-yl)-6-fluoro-1,3-dioxoisoindolin-5-yl)azetidin-3-yl)methyl)piperidin-4-yl)-3-methoxybenzamide], the “Activity: ratio” value at PLK1 is on record as “++ (++<0.6)”. Moreover, the half-maximal inhibitory concentration (IC50) is less than 0.1 µM in the experiment with NCI-H526 cell line and greater than 10 µM with MRC-5 cell line.
On to `COc1cc(C(=O)NN2CCN(C3CCN(c4cccc5c4C(=O)N(C4CCC(=O)NC4=O)C5=O)CC3(F)F)CC2)ccc1Nc1ncc2c(n1)N(C(C)C)CC(F)(F)C(=O)N2C` (stereo not drawn) [Compound 167, 4-((7,7-difluoro-9-isopropyl-5-methyl-6-oxo-6,7,8,9-tetrahydro-5H-pyrimido[4,5-b][1,4]diazepin-2-yl)amino)-N-(4-(1-(2-(2,6-dioxopiperidin-3-yl)-1,3-dioxoisoindolin-4-yl)-3,3-difluoropiperidin-4-yl)piperazin-1-yl)-3-methoxybenzamide], for which the “Activity: ratio” value on PLK1 is “+++ (+++: <0.3)”. Also, the IC50 in the experiment with NCI-H526 cell line was less than 0.03 µM; with MRC-5 cell line it was greater than 10 µM.
`COc1cc(C(=O)NN2CCN(C3CN(c4ccc5c(c4)C(=O)N(C4CCC(=O)NC4=O)C5=O)C3)CC2)ccc1Nc1ncc2c(n1)N(C1CCCC1)CC(F)(F)C(=O)N2C` (stereo not drawn) [Compound 201, 4-((9-cyclopentyl-7,7-difluoro-5-methyl-6-oxo-6,7,8,9-tetrahydro-5H-pyrimido[4,5-b][1,4]diazepin-2-yl)amino)-N-(4-(1-(2-(2,6-dioxopiperidin-3-yl)-1,3-dioxoisoindolin-5-yl)azetidin-3-yl)piperazin-1-yl)-3-methoxybenzamide]: at PLK1, the “Activity: ratio” value is “+++ (+++: <0.3)”. Also, the IC50 was less than 0.05 µM in the experiment on NCI-H526 cell line and greater than 10 µM with MRC-5 cell line.
On the same counts, the results for `COc1cc(C(=O)N2CCN(C/C=C/CN3CCN(c4ccc5c(c4)C(=O)N(C4CCC(=O)NC4=O)C5=O)CC3)CC2)ccc1Nc1ncc2c(n1)N(C1CCCC1)CC(F)(F)C(=O)N2C` (stereo not drawn) [Compound 92, (E)-5-(4-(4-(4-(4-((9-cyclopentyl-7,7-difluoro-5-methyl-6-oxo-6,7,8,9-tetrahydro-5H-pyrimido[4,5-b][1,4]diazepin-2-yl)amino)-3-methoxybenzoyl)piperazin-1-yl)but-2-en-1-yl)piperazin-1-yl)-2-(2,6-dioxopiperidin-3-yl)isoindoline-1,3-dione] are “++ (++<0.6)”, less than 0.2 µM and greater than 10 µM.
Regarding `COc1cc(C(=O)NC2CCN(C(=O)CC3CN(c4ccc5c(c4)C(=O)N(C4CCC(=O)NC4=O)C5=O)C3)CC2)c(F)cc1Nc1ncc2c(n1)N(C1CCCC1)CC(F)(F)C(=O)N2C` (stereo not drawn) [Compound 205, 4-((9-cyclopentyl-7,7-difluoro-5-methyl-6-oxo-6,7,8,9-tetrahydro-5H-pyrimido[4,5-b][1,4]diazepin-2-yl)amino)-N-(1-(2-(1-(2-(2,6-dioxopiperidin-3-yl)-1,3-dioxoisoindolin-5-yl)azetidin-3-yl)acetyl)piperidin-4-yl)-2-fluoro-5-methoxybenzamide], on PLK1, the “Activity: ratio” value is listed as “++ (++<0.6)”. Besides, the values for the IC50 in the experiment on NCI-H526 cell line and in the experiment on MRC-5 cell line were less than 0.05 µM and greater than 10 µM, respectively.
Consider `COc1cc(C(=O)NN2CCN(C3CCN(c4ccc5c(c4)C(=O)N(C4CCC(=O)NC4=O)C5=O)C3)CC2)ccc1Nc1ncc2c(n1)N(C1CCCC1)CC(F)(F)C(=O)N2C` (stereo not drawn) [Compound 56, 4-((9-cyclopentyl-7,7-difluoro-5-methyl-6-oxo-6,7,8,9-tetrahydro-5H-pyrimido[4,5-b][1,4]diazepin-2-yl)amino)-N-(4-(1-(2-(2,6-dioxopiperidin-3-yl)-1,3-dioxoisoindolin-5-yl)pyrrolidin-3-yl)piperazin-1-yl)-3-methoxybenzamide], for which, on PLK1, the “Activity: ratio” value is on record as “++ (++<0.6)”. In addition, the half-maximal inhibitory concentration (IC50) in the experiment with NCI-H526 cell line was less than 0.03 µM; in the experiment on MRC-5 cell line, greater than 10 µM.
The matching figures for `COc1cc(C(=O)NN2CCC(N3CC4(CCN(c5ccc6c(c5)C(=O)N(C5CCC(=O)NC5=O)C6=O)CC4)C3)CC2)ccc1Nc1ncc2c(n1)N(C1CCCC1)CC(F)(F)C(=O)N2C` (stereo not drawn) [Compound 212, 4-((9-cyclopentyl-7,7-difluoro-5-methyl-6-oxo-6,7,8,9-tetrahydro-5H-pyrimido[4,5-b][1,4]diazepin-2-yl)amino)-N-(4-(7-(2-(2,6-dioxopiperidin-3-yl)-1,3-dioxoisoindolin-5-yl)-2,7-diazaspiro[3.5]nonan-2-yl)piperidin-1-yl)-3-methoxybenzamide]: “++ (++<0.6)”, less than 0.03 µM and greater than 10 µM.
On the same counts, the results for `COc1cc(C(=O)N2CCN(CCCCN3CCN(c4ccc5c(c4)C(=O)N(C4CCC(=O)NC4=O)C5=O)CC3)CC2)ccc1Nc1ncc2c(n1)N(C1CCCC1)CC(F)(F)C(=O)N2C` (stereo not drawn) [Compound 91, 5-(4-(4-(4-(4-((9-cyclopentyl-7,7-difluoro-5-methyl-6-oxo-6,7,8,9-tetrahydro-5H-pyrimido[4,5-b][1,4]diazepin-2-yl)amino)-3-methoxybenzoyl)piperazin-1-yl)butyl)piperazin-1-yl)-2-(2,6-dioxopiperidin-3-yl)isoindoline-1,3-dione] are “++ (++<0.6)”, less than 0.4 µM and greater than 10 µM.

For the origin of these results see patent US20250114460A1, “NOVEL PLK1 DEGRADATION INDUCING COMPOUND” (UPPTHERA, INC., priority 2021, published 2025).
